Experimental data: patent US4477465A, “Substituted 4,10-dihydro-10-oxothieno benzoxepins” (Hoechst-Roussel Pharmaceuticals Inc., priority 1983, dated 1984)
Like-named read-outs stand apart in the source and are kept apart here.

Tests used:
[1] = system: carrageenin induced rat paw edema; experiment: carrageenin induced rat paw edema antiinflammatory assay; type: in vivo; conditions: for Carrageenin Paw Edema %: dose 20 mg/kg (p.o.), rat
Description: The compounds of the present invention are useful as antiinflammatory agents due to their ability to suppress inflammation in mammals. […] Exptl. Biol. Med., III 544 (1962), J. Pharmacol. Exp., 141 (1963)].

[2] = system: 2-phenyl-1,4-benzoquinone-induced writhing; experiment: 2-phenyl-1,4-benzoquinone-induced writhing test in mice (analgesia); type: in vivo; conditions: Mus musculus, po
[3] = mice, read-out: Phenylquinone Writhing ED50 Orally (p.o.)

SMILES	Carrageenin Paw Edema % [1]	ED50 [2, 3]	inhibition of edema ([1]; dose 50 mg/kg (p.o.), in a similar test)	ED50 ([2]; read-out: analgesic activity ED50)
CC1(C)COC(Cc2ccc3c(c2)C(=O)c2sccc2CO3)=N1 [2-(4,10-Dihydro-10-oxothieno[3,2-c][1]benzoxepin-8-yl)methyl-4,4-dimethyl-oxazoline]	49%	7.22 mg/kg	–	–
CCCCC1C(=O)N(c2ccccc2)N(c2ccccc2)C1=O [phenylbutazone, reference compound]	–	–	50%	–
COC(=O)COC(=O)Cc1ccc2c(c1)C(=O)c1sccc1CO2 [Methyl (4,10-dihydro-10-oxothieno[3,2-c][1]benzoxepin-8-yl) acetoxyacetate]	43%	1.53 mg/kg	–	–
COc1ccc2c(c1)c(CC(=O)O)c(C)n2C(=O)c1ccc(Cl)cc1 [indomethacin, reference compound]	–	–	–	0.7 mg/kg
